Measured values taken from patent US9040524B2, “Antifungal 5,6-dihydro-4H-pyrrolo[1,2-a][1,4]-benzodiazepines and 6H-pyrrolo[1,2-a][1,4]benzodiazepines substituted with bicycle benzene derivatives” (JANSSEN PHARMACEUTICA NV, priority 2010, dated 2015).

Assays:
Type in all cases: cell-based
[1] = tested on: Microsporum canis; test: Antifungal activity in vitro, resazurin growth inhibition screen: Microsporum canis; conditions: Microsporum canis B68128; for IC50: read-out: Inf. B pIC50 (converted)
Protocol: (§1) The standard susceptibility screen was performed in 96-well plates (U-bottom, Greiner Bio-One). Serial dilutions (2-fold or 4-fold) of 20 mM compound stock solutions were made in 100% DMSO, followed by an intermediate dilution step in water. These serial dilutions (10 μl) were then spotted onto test-plates that could be stored in the dark at 4° C. for a maximum period of 2 weeks. An adequate broad dose-range was included with 64 μM as the highest in-test concentration. […] The different fungal species/isolates (Table 3a) were cryopreserved and 1/1000 diluted in medium just prior to use. A standard inoculum of 200 μl containing 10^3 colony-forming unit (cfu) was then added to each well. A positive control (100% growth=fungal culture without antifungal) and a negative control (0% growth=RPMI-MOPS medium) were included on each plate.

[2] = tested on: Trichophyton mentagrophytes; test: Antifungal activity in vitro, resazurin growth inhibition screen: Trichophyton mentagrophytes; conditions: Trichophyton mentagrophytes B70554; for IC50: read-out: Inf. G pIC50 (converted)
Protocol: as §1

[3] = tested on: Trichophyton rubrum; test: Antifungal activity in vitro, resazurin growth inhibition screen: Trichophyton rubrum; conditions: Trichophyton rubrum B68183; for IC50: read-out: Inf. C pIC50 (converted)
Protocol: as §1

[4] = tested on: Scedosporium apiospermum; test: Antifungal activity in vitro, resazurin growth inhibition screen: Scedosporium apiospermum; conditions: Scedosporium apiospermum IHEM3817
Protocol: as §1

[5] = tested on: Scedosporium prolificans; test: Antifungal activity in vitro, resazurin growth inhibition screen: Scedosporium prolificans; conditions: Scedosporium prolificans IHEM21157
Protocol: as §1

[6] = tested on: Sporothrix schenkii; test: Antifungal activity in vitro, resazurin growth inhibition screen: Sporothrix schenkii; conditions: Sporothrix schenkii B62482; for IC50: read-out: Inf. A pIC50 (converted)
Protocol: as §1

[7] = tested on: Aspergillus fumigatus; test: Antifungal activity in vitro, resazurin growth inhibition screen: Aspergillus fumigatus; conditions: Aspergillus fumigatus B42928; for IC50: read-out: Inf. E pIC50 (converted)
Protocol: as §1

[8] = tested on: Candida parapsilosis; test: Antifungal activity in vitro, resazurin growth inhibition screen: Candida parapsilosis; conditions: Candida parapsilosis B66126; for IC50: Lodderomyces parapsilosis, read-out: Inf. D pIC50 (converted)
Protocol: as §1

[9] = tested on: Cryptococcus neoformans; test: Antifungal activity in vitro, resazurin growth inhibition screen: Cryptococcus neoformans; conditions: Cryptococcus neoformans B66663; for IC50: read-out: Inf. F pIC50 (converted)
Protocol: as §1

[10] = tested on: Rhizopus oryzae; test: Antifungal activity in vitro, resazurin growth inhibition screen: Rhizopus oryzae; conditions: Rhizopus oryzae IHEM5223
Protocol: as §1

[11] = tested on: Rhizomucor miehei; test: Antifungal activity in vitro, resazurin growth inhibition screen: Rhizomucor miehei; conditions: Rhizomucor miehei IHEM13391
Protocol: as §1

IC50 [1] | IC50 [2] | IC50 [3] | IC50 [6] | IC50 [7] | IC50 [8] | IC50 [9] | Compound | Inf. B pIC50 [1] | Inf. G pIC50 [2] | Inf. C pIC50 [3] | Inf. H pIC50 [4] | Inf. I pIC50 [5] | Inf. A pIC50 [6] | Inf. E pIC50 [7] | Inf. D pIC50 [8] | Inf. F pIC50 [9] | Inf. J pIC50 [10] | Inf. K pIC50 [11]
 |  |  |  |  |  |  | CN1CCc2cc(C3=NCc4c(Cl)cccc4-n4cccc43)ccc21 [Compound 83, 7-chloro-4-(2,3-dihydro-1-methyl-1H-indol-5-yl)-6H-pyrrolo[1,2-a][1,4]benzo-diazepine] | 5.66 | 5.06 | 5.71 | 4.76 | 5.85 | 5.14 | 5.89 | 5.28 | 5.57 | <4.19 | <4.19
 |  |  |  |  |  |  | Clc1ccc2c(c1)-n1cccc1C(c1ccc3c(c1)CCCO3)=NC2 [Compound 42, 9-chloro-4-(3,4-dihydro-2H-1-benzopyran-6-yl)-6H-pyrrolo[1,2-a][1,4]benzo-diazepine] | 4.49 | <4.19 | <4.19 |  |  | 5.10 | <4.19 | 5.63 | 6.82 |  | 
 |  |  |  |  |  |  | Cl.Clc1cccc2c1CNC(c1ccc3c(c1)OCC3)c1cccn1-2 (centres unmarked) [Compound 27, 7-chloro-4-(2,3-dihydro-6-benzofuranyl)-5,6-dihydro-4H-pyrrolo[1,2-a][1,4]benzo-diazepine .HCl] | 5.15 | 4.96 | 6.32 |  |  | <4.19 | <4.19 | <4.19 | <4.19 |  | 
 |  |  |  |  |  |  | Br.Clc1cccc2c1-n1cccc1C(c1ccc3c(c1)OCO3)NC2 (centres unmarked) [Compound 7, 4-(1,3-benzodioxol-5-yl)-10-chloro-5,6-dihydro-4H-pyrrolo[1,2-a][1,4]benzo-diazepine .HBr] | 5.30 | 4.47 | 5.40 |  |  | <4.19 | <4.19 | <4.19 | 4.64 |  | 
9.33 µM | 32.4 µM | 32.4 µM | 31.6 µM | > 64600 nM | 2.14 µM | 4.68 µM | Fc1cc(F)c2c(c1)-n1cccc1C(c1ccc3c(c1)CCC(F)(F)O3)=NC2 [Compound 73, 4-(2,2-difluoro-3,4-dihydro-2H-1-benzopyran-6-yl)-7,9-difluoro-6H-pyrrolo[1,2-a]-[1,4]benzodiazepine] |  |  |  |  |  |  |  |  |  |  | 
 |  |  |  |  |  |  | Clc1cccc2c1-n1cccc1C(c1ccc3c(c1)CCOC3)=NC2 [Compound 82, 10-chloro-4-(3,4-dihydro-1H-2-benzopyran-6-yl)-6H-pyrrolo[1,2-a][1,4]benzo-diazepine] | 5.69 | 5.56 | 5.95 |  |  | 5.06 | 5.56 | 4.77 | 5.26 |  | 
 |  |  |  |  |  |  | Cl.Clc1ccc(Cl)c2c1CNC(c1ccc3c(c1)CCO3)c1cccn1-2 (centres unmarked) [Compound 32, 7,10-dichloro-4-(2,3-dihydro-5-benzofuranyl)-5,6-dihydro-4H-pyrrolo[1,2-a][1,4]-benzodiazepine .HCl] | 5.52 | 4.92 | 5.22 |  |  | <4.19 | <4.19 | <4.19 | 4.64 |  | 
5.01 µM | 7.94 µM | 5.01 µM | 5.01 µM | > 64600 nM | 12 µM | 7.08 µM | Clc1ccc2c(c1Cl)CN=C(c1ccc3c(c1)CCO3)c1cccn1-2 [Compound 44, 7,8-dichloro-4-(2,3-dihydro-5-benzofuranyl)-6H-pyrrolo[1,2-a][1,4]benzodiazepine] |  |  |  |  |  |  |  |  |  |  | 
0.617 µM | 0.309 µM | 0.269 µM | 1.95 µM | 219 nM | 8.13 µM | 0.1 µM | FC1(F)CCc2cc(C3=NCc4ccc(Cl)cc4-n4cccc43)ccc2O1 [Compound 71, 9-chloro-4-(2,2-difluoro-3,4-dihydro-2H-1-benzopyran-6-yl)-6H-pyrrolo[1,2-a]-[1,4]benzodiazepine] |  |  |  |  |  |  |  |  |  |  | 
 |  |  |  |  |  |  | CN1CCc2cc(C3=NCc4c(F)cccc4-n4cccc43)ccc21 [Compound 81, 4-(2,3-dihydro-1-methyl-1H-indol-5-yl)-7-fluoro-6H-pyrrolo[1,2-a][1,4]benzo-diazepine] | 5.28 | 4.90 | 5.65 |  |  | 4.49 | 4.39 | 4.60 | 5.29 |  | 
 |  |  |  |  |  |  | Cl.Clc1ccc2c(c1Cl)CNC(c1ccc3c(c1)CCO3)c1cccn1-2 (centres unmarked) [Compound 30, 7,8-dichloro-4-(2,3-dihydro-5-benzofuranyl)-5,6-dihydro-4H-pyrrolo[1,2-a][1,4]-benzodiazepine .HCl] | 6.00 | 5.00 | 5.22 |  |  | <4.19 | <4.19 | <4.19 | 5.22 |  | 
 |  |  |  |  |  |  | FC1(F)CCc2cc(C3=NCc4c(Cl)cccc4-n4cccc43)ccc21 [Compound 66, 7-chloro-4-(1,1-difluoro-2,3-dihydro-1H-inden-5-yl)-6H-pyrrolo[1,2-a][1,4]benzo-diazepine] | 4.49 | <4.19 | <4.19 |  |  | 4.46 | 5.09 | 5.55 | 6.11 |  | 
 |  |  |  |  |  |  | Clc1ccc2c(c1)-n1cccc1C(c1ccc3c(c1)CCOC3)=NC2 [Compound 41, 9-chloro-4-(3,4-dihydro-1H-2-benzopyran-6-yl)-6H-pyrrolo[1,2-a][1,4]benzo-diazepine] | 4.48 | 4.49 | <4.19 |  |  | <4.19 | <4.19 | 5.60 | 4.52 |  | 
 |  |  |  |  |  |  | Cl.Fc1cc(F)c2c(c1)-n1cccc1C(c1ccc3c(c1)CCC(F)(F)O3)NC2 (centres unmarked) [Compound 54, 4-(2,2-difluoro-3,4-dihydro-2H-1-benzopyran-6-yl)-7,9-difluoro-5,6-dihydro-4H-pyrrolo[1,2-a][1,4]benzodiazepine .HCl] | 5.09 | 4.49 | 5.10 |  |  | <4.19 | <4.19 | <4.19 | 5.11 |  | 
 |  |  |  |  |  |  | Cl.Clc1cc(Cl)c2c(c1)CNC(c1ccc3c(c1)CCC3)c1cccn1-2 (centres unmarked) [Compound 17, 8,10-dichloro-4-(2,3-dihydro-1H-inden-5-yl)-5,6-dihydro-4H-pyrrolo[1,2-a][1,4]-benzodiazepine .HCl] | <4.19 | 4.71 | 5.70 |  |  | <4.19 | 5.46 | <4.19 | <4.19 |  | 
2 µM | 3.98 µM | 1.58 µM | 2.24 µM | 2400 nM | > 64.6 µM | 5.89 µM | O=C1CCc2cc(C3=NCc4cccc(Cl)c4-n4cccc43)ccc21 [Compound 57, 5-(10-chloro-6H-pyrrolo[1,2-a][1,4]benzodiazepin-4-yl)-2,3-dihydro-1H-inden-1-one] |  |  |  |  |  |  |  |  |  |  | 
 |  |  |  |  |  |  | Fc1cccc2c1CN=C(c1ccc3c(c1)CCCO3)c1cccn1-2 [Compound 40, 4-(3,4-dihydro-2H-1-benzopyran-6-yl)-7-fluoro-6H-pyrrolo[1,2-a][1,4]benzo-diazepine] | 4.49 | <4.19 | <4.19 |  |  | <4.19 | <4.19 | 5.56 | 5.87 |  | 
 |  |  |  |  |  |  | Fc1cc(F)c2c(c1)-n1cccc1C(c1ccc3c(c1)CCCO3)=NC2 [Compound 46, 4-(3,4-dihydro-2H-1-benzopyran-6-yl)-7,9-difluoro-6H-pyrrolo[1,2-a][1,4]benzo-diazepine] | 4.48 | <4.19 | 4.44 |  |  | 4.49 | 4.49 | 5.79 | 5.49 |  | 
 |  |  |  |  |  |  | Cl.Clc1ccc(Cl)c2c1CNC(c1ccc3c(c1)CCC3)c1cccn1-2 (centres unmarked) [Compound 16, 7,10-dichloro-4-(2,3-dihydro-1H-inden-5-yl)-5,6-dihydro-4H-pyrrolo[1,2-a][1,4]-benzodiazepine .HCl] | 5.00 | 4.52 | 5.40 |  |  | <4.19 | <4.19 | <4.19 | <4.19 |  | 
